Assays:
H2 receptor = H2 receptor (Homo sapiens, UniProt P25021); settings: Xenopus oocyte
From the text: Oocytes removed from a female Xenopus were selected by a conventional method. RNA encoding the H1 and H2 receptors, M1 to M5 receptors, δ opioid receptors, or mGlu1 receptors that were synthesized in vitro were transfected into the selected oocyte together with RNA encoding a chimeric Gqα subunit constituted by a portion of the G11 protein α subunit and a portion of the G14 protein α subunit that was similarly synthesized. As a control, an oocyte to which RNA of the chimeric Gqα subunit was not to be transfected was prepared. Thereafter, oocytes were cultured.
The cultured oocytes were clamped at −60 mV by TEVC. […] The occurrence of Ca-dependent Cl response was then assayed.
RNA encoding the H2 receptor was transfected in the oocytes. Simultaneously or 24 hours thereafter, RNA encoding the chimeric Gqα subunit constituted by a portion of the G11α subunit and a portion of the G14α subunit was transfected therein. Thereafter, the ligand responses of these oocytes were assayed by the method described in Example 1.

M4 receptor = assay: Ca-dependent Cl response in Xenopus oocytes coexpressing M4 receptor and chimeric Gqα subunit (G11α/G14α); type: cell-based; settings: Xenopus oocyte, chimeric Gqα subunit coexpressed, clamped at −60 mV by TEVC, FIG. 5
Procedure: They were subjected to coexpression in Xenopus oocytes. […] Res. Commun. 201 (2), 894-901 (1994).
Thereafter, oocytes were cultured.

H2 receptor, sequence (P25021 whole entry): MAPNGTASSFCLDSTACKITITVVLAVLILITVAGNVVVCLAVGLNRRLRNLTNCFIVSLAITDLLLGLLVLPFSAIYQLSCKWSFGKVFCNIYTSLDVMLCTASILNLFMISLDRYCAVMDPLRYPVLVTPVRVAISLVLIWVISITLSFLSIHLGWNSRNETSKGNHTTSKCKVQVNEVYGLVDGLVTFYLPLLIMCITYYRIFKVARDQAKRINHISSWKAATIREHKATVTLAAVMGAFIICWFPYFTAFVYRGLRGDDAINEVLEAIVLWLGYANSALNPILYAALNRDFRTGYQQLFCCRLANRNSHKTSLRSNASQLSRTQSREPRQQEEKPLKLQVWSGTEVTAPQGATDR

Row | SMILES | response generated by ligand, chimeric Gqα RNA transfected 24 hours after GPCR RNA compared with simultaneous transfection (H2 receptor; 10 μM ligand, FIG. 6) | response generated by ligand stimulus at various concentration levels (H2 receptor; chimeric Gqα subunit coexpressed, clamped at −60 mV by TEVC, FIG. 5) | response generated by ligand stimulus at various concentration levels (M4 receptor)
1 | NCCc1c[nH]cn1 [histamine] | greatly increased | correlations between ligand concentration and size of response | 
2 | CC(=O)OCC[N+](C)(C)C [Ach] |  |  | correlations between ligand concentration and size of response

Reference: US20040253675A1, “Method for GPCR assay with a coexpressed Galpha protein” (Hitachi, Ltd., priority 2003, published 2004)
